{"source": "patent US5196447A", "about": "“Neristatin 1” (Arizona Board of Regents, a body Corporate of The State of …, priority 1991, dated 1993)", "key": {"protein kinase C [1]": {"molecular_target": "protein kinase C", "assay": "Competition for [26-3H] bryostatin 4 binding to protein kinase C (phosphatidylserine/TRITON X-100 mixed micelles)"}, "protein kinase C [2]": {"system": "protein kinase C", "assay": "Usual phorbol ester binding conditions using reconstitution of protein kinase C in phosphatidylserine"}, "P388 cell line": {"system": "P388 cell line", "assay": "Activity against the P388 lymphocytic leukemia cell line", "assay_type": "cell-based, murine"}, "[3]": {"assay": "Stability in recrystallization attempts / various solvents", "assay_type": "physicochemical"}}}
{"compound": "COC(=O)C=C1CC2C=CC(C)(C)C(=O)C34OC(=O)CC3CC(CC(O)C(C)OC(=O)CC(O)CC3CC(OC(=O)C(C)(C)C)C(C)(C)C(O)(CC(C1)O2)O3)O4", "note": "(stereo not shown) [neristatin 1]", "values": [{"measurement": "Ki", "setting": "protein kinase C [1]; phosphatidylserine/TRITION X-100 mixed micelles, competition for [26-3H] bryostatin 4, neristatin 1: mean±SEM, 4 experiments", "value": "124 ± 10", "unit": "nM"}, {"measurement": "affinity for protein kinase C compared with bryostatin 4", "setting": "protein kinase C [1]; relative to bryostatin 4", "value": "at least two orders of magnitude less"}, {"measurement": "affinity for protein kinase C compared with phorbol 12,13-dibutyrate", "setting": "protein kinase C [2]; relative to phorbol 12,13-dibutyrate", "value": "an order of magnitude less"}, {"measurement": "Ki", "setting": "protein kinase C [2]; usual phorbol ester binding conditions, reconstitution in phosphatidylserine, neristatin 1: mean±sem, 3 experiments", "value": "21.2 ± 1.3", "unit": "nM"}, {"measurement": "IC50", "setting": "P388 cell line; Mus musculus, read-out: ED50 (the source's name)", "value": 10, "unit": "µg/mL"}, {"measurement": "potency compared to bryostatin 5", "setting": "P388 cell line; relative to bryostatin 5", "value": "reduced but still significant potency"}, {"measurement": "stability of small samples in various solvents", "setting": "[3]", "value": "rapidly degraded in various solvents"}]}
